According to ChEMBL document CHEMBL3232729, “Marsupellins A-F, ent-longipinane-type sesquiterpenoids from the Chinese liverwort Marsupella alpine with acetylcholinesterase inhibitory activity” (J Nat Prod, 2014):

Target: Acetylcholinesterase (Homo sapiens) (UniProt P22303)
Sequence (P22303 whole entry): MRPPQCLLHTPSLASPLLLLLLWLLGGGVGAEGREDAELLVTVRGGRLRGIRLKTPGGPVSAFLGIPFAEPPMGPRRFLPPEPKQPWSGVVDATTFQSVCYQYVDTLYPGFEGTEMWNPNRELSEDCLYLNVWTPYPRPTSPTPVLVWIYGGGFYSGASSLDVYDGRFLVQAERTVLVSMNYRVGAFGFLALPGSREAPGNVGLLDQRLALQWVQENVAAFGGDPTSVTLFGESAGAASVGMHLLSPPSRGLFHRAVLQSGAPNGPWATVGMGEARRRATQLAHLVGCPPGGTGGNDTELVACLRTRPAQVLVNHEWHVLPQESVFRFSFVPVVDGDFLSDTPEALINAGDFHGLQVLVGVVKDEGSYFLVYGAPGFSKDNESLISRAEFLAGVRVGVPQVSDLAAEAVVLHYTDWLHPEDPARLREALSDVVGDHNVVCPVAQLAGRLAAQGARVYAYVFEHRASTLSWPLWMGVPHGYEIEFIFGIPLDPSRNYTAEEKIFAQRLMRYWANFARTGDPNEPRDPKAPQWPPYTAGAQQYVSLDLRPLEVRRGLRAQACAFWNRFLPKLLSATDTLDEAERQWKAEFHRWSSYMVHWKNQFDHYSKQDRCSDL
Description: Inhibition of AChE (unknown origin) assessed as minimum inhibitory concentration by bioautographic TLC assay

| Compound | MIC [µg] |
| --- | --- |
| C=C1OC(=O)C[C@H]2[C@H]3[C@@H]1[C@]2(COC(C)=O)CCCC3(C)C | 4 |
| CC(=O)OC[C@]12CCCC(C)(C)[C@@H]3[C@H]1[C@]1(CO1)C(=O)C[C@@H]32 | 4 |
| C=C1[C@@H](O)[C@H](O)[C@H]2[C@H]3[C@@H]1C2(C)CCCC3(C)C | 4 |
| CC(=O)OC[C@]12CCCC(C)(C)[C@@H]3[C@H]1[C@@]1(CO1)C(=O)C[C@@H]32 | 4 |
| C=C1C(=O)C[C@H]2[C@H]3[C@@H]1C2(COC(C)=O)CCCC3(C)C | 4 |
| C[C@@H]1C(=O)C[C@H]2[C@H]3[C@@H]1C2(C)CCCC3(C)C | 4 |
| C[C@H]1[C@@H]2[C@@H]3[C@@H]4C[C@@]1(O)OC(=O)[C@@]24CCCC3(C)C | 0.6 |
| C=C1[C@H](O)C[C@H]2[C@H]3[C@@H]1C2(COC(C)=O)CCCC3(C)C | 4 |
| C[C@H]1[C@@H]2[C@@H]3[C@@H]4C[C@@]1(O)OC[C@@]24CCCC3(C)C | 0.8 |
